The source of these data is patent publication US20230285357A1, “COMPOSITIONS AND METHODS FOR […] CELLS” (The Regents of the University of California, priority 2020, published 2023).

Experiment [1] deals with vascular repair. The experiment is described as follows: Hindlimb ischemia model in nude mice after cell transplantation. Format: in vivo, mouse. As for the experimental part: Then, same cells in a model of hindlimb ischemia in nude mice to evaluate the capacity of eGFP positive cells in vascular repair were tested. After ligation of the proximal and distal femoral artery, eGFP positive cells were transplanted (FIG. 2, Part F). Human aortic endothelial cells (HAECs) and osteoblasts were used as controls.
Tube formation assays in vitro was then tested. […] Cells into hindlimb ischemia mouse model were transplanted.
Laser Doppler perfusion imaging was performed using real-time microcirculation imaging system (Perimed). The imaging was conducted under normal ambient room lighting. 20×27 mm high resolution model was used with 1388×1038 pixels measurement camera and 752×580 pixels documentation camera as one image per second. The image resolution was set up as 20 μm/pixel and 21 images per frame until stopped. Windows based PIMSoft software (Perimed) was used to process the data.
The murine model of hindlimb ischemia was performed as previously described. A 10 mm long incision of the skin was made towards the medial thigh. The femoral artery was exposed and separated from femoral vein and nerve. Silk sutures were used to tie the proximal and the distal end of femoral artery with double knots. The cells (5×10^5) were transplanted into the surgical area and the incision was closed. Laser Doppler perfusion imaging was used to monitor the blood flow at different time points. Histology and immunostaining were used to examine the vascularization 2 weeks after transplantation.

Experiment [2] relates to mouse osteoblast line MC3T3. The experiment is described as follows: Real-time PCR of osteogenic, endothelial and other lineage markers in treated mouse osteoblasts. The class given is cell-based. The source says:
A high throughput screen was generated by modifying the mouse osteoblast line MC3T3. Fetal liver kinase 1 (Flk1) promoter-driven enhanced green fluorescent protein (eGFP) was introduced into these osteoblasts. […] Several libraries of small molecules, including a FDA-approved drug library, a UCLA in-house collection, and a custom set of compounds were screened. These libraries contained more than 22,000 small molecules ranging from natural products to synthesized compounds. […] Using arrange of dose (1-10 μM), it is shown that the reduction of the osteogenic markers Cbfa1, osterix and osteocalcin and the induction of the endothelial markers CD34, VE-cadherin, CD31 and eNOS occurred in a dose-dependent manner (FIG. 1, Part E). Osteoblasts were then treated with 10 μM SB216763 and examined the time-course expression of these osteogenic and endothelial markers. […] To determine if a mesenchymal stage or emerging stemness is required for SB216763 to induce osteoblastic-endothelial transdifferentiation, mesenchymal and stem cell markers were examined and found no induction in the SB216763-treated cells (FIG. 9, Part E). It was further determined the specificity of endothelial differentiation by closely examining other vascular lineage markers including smooth muscle cells (SMCs), pericytes, and fibroblasts by using real-time PCR. In addition, no-vascular lineages, such as cardiac, neuronal, hepatic, pulmonary, renal, hematopoietic and adipogenic lineages were examined. […] Because GSK3 is important in glucose metabolism, the expression of genes related to glucose metabolism was determined in the SB216763-treated osteoblasts, such as casein kinase 2, glucose transporter 4, and insulin receptor substrates 1 and 2.
Real-time PCR analysis was performed as previously described. Glyceraldehyde 3-phosphate dehydrogenase (GAPDH) was used as a control gene. Primers and probes for mouse and human Cbfa1, ostrix, osteocalcin, CD34, VE-cadherin, CD31, eNOS, SMAD1, and β-catenin, were obtained from Applied Biosystems as part of Tagman® Gene Expression Assays.

Experiment [3] concerns ectopic bone formation. The experiment is described as follows: Ectopic bone formation in vivo after transplantation of treated cells. More on the design: species or system mouse. As for the experimental part:
To assess the functional capacity of SB216763-treated osteoblasts, they were treated with osteogenic induction media in vitro. […] A transplantation experiment was then performed to examine the capacity for bone formation using a well-established bone formation assay in vivo. This assay was adapted and eGFP positive cells were used, which were isolated from SB216763-treated Flk1-eGFP osteoblasts (FIG. 2, Part A).
The cells were then subjected to osteogenic induction media. […] Cells was transplanted into nude mice to test ectopic bone formation.
MicroCT imaging was performed at the Crump Imaging Center at UCLA. All the samples were scanned on a high-resolution, volumetric microCT scanner (CT125). The image data were acquired with the following parameters: 10 μm isotropic voxel resolution; 200 ms exposure time; 2,000 views and 5 frames per view. The microCT-generated DICOM files were used to analyze the samples and to create volume renderings of the regions of interest. The raw data files were viewed using the MicroView 3-D volume viewer and analysis tool (GE Healthcare) and AltaViewer™ Software. Additionally, images of the samples were generated using SCIRun (Scientific Computing and Imaging Institute).
All the surgeries were performed on a heated pad with a connection to a continuous flow of isoflurane. Ectopic bone formation was performed as previously described: 5×10^5 cells were mixed with 40 mg hydroxyapatite/tricalcium phosphate power (SALVIN™, ORASTRUCT-0.5 CC) and incubated in a 1 ml syringe at 37° C. in 5% CO2 overnight. After disinfection with 70% ethanol, a skin incision was made on the back of mouse. A subcutaneous pouch was formed by blunt dissection. The mixture of cells and hydroxyapatite/tricalcium phosphate was transplanted into the pouch and the incision was closed. The implants were examined by microCT imaging and histology 12 weeks after transplantation.

In experiment [4] the test system is mouse osteoblast line MC3T3. The experiment is described as follows: Flow cytometric analysis of SB216763-treated osteoblasts with anti-CD31 and anti-VE-cadherin antibodies. The class given is cell-based. The source says:
A high throughput screen was generated by modifying the mouse osteoblast line MC3T3. Fetal liver kinase 1 (Flk1) promoter-driven enhanced green fluorescent protein (eGFP) was introduced into these osteoblasts. […] Several libraries of small molecules, including a FDA-approved drug library, a UCLA in-house collection, and a custom set of compounds were screened. These libraries contained more than 22,000 small molecules ranging from natural products to synthesized compounds. […] Using arrange of dose (1-10 μM), it is shown that the reduction of the osteogenic markers Cbfa1, osterix and osteocalcin and the induction of the endothelial markers CD34, VE-cadherin, CD31 and eNOS occurred in a dose-dependent manner (FIG. 1, Part E). Osteoblasts were then treated with 10 μM SB216763 and examined the time-course expression of these osteogenic and endothelial markers. […] It was further determined the specificity of endothelial differentiation by closely examining other vascular lineage markers including smooth muscle cells (SMCs), pericytes, and fibroblasts by using real-time PCR. […] Because GSK3 is important in glucose metabolism, the expression of genes related to glucose metabolism was determined in the SB216763-treated osteoblasts, such as casein kinase 2, glucose transporter 4, and insulin receptor substrates 1 and 2. […]
(Flow cytometry measures light scatter and fluorescence of single cells or particles in a stream.)

The subject of experiment [5] is SMAD1 or β-catenin DNA-binding. Nature of the experiment: ChIP-seq of SMAD1 and β-catenin DNA-binding in treated osteoblasts. Format: cell-based, mouse. As for the experimental part: A chromatin immunoprecipitation was performed with massively parallel DNA sequencing (ChIP-seq) to examine potential alterations of SMAD1 or β-catenin DNA-binding in SB216763-treated osteoblasts.
For ChIP-seq, specific antibodies were used to enrich the genomic DNA as described before. ChIP DNA were sequenced by the Pathology Research Services at UCLA. Reads from each sample were mapped to the mouse genome using Bowtie2. Homer tool was used to detect significant enrichment of peaks with 5% false discovery rate and >4-fold over input. Motif occurrences in peaks were identified by the Homer motif discovery function. Peak annotation was performed to associate peaks with nearby genes and calculate tag densities. GO analysis and pathway enrichment of the identified genes were also performed. Specific antibodies for SMAD1 (Cell Signaling Technology, 9743) and β-catenin (R&D System, MAB2006) were used. The data were deposited in Gene Expression Omnibus (GEO) database with access number (GSE147374).

The mark [6] stands for this setting: dose range 1-10 μM, dose-dependent manner.

As to `Cn1cc(C2=C(c3ccc(Cl)cc3Cl)C(=O)NC2=O)c2ccccc21` [SB216763], the “blood flow, Laser Doppler perfusion imaging” value is given as “No difference was observed” in experiment [1] (SB216763-treated cells with restoring SMAD1 vs controls) and “less blood flow” in experiment [1] (SB216763-treated osteoblasts with depletion of β-catenin vs cells without depletion). Also, the “vascular density, histology and immunostaining” value in experiment [1] (transplanted eGFP positive cells) is “increase in vascular density”. The “limb blood flow, Laser Doppler perfusion imaging” value in experiment [1] (transplanted eGFP positive cells compared to osteoblasts) is recorded as “significantly higher limb blood flow”. In experiment [2] (10 μM), the “time-course expression of osteogenic and endothelial markers” value was “a reduction of osteogenic markers preceded the induction of the endothelial markers”. Also, in experiment [2] (setting [6]), the “expression of endothelial markers CD34, VE-cadherin, CD31 and eNOS” value is listed as “induction”. In addition, in experiment [2] (setting [6]), the “expression of osteogenic markers Cbfa1, osterix and osteocalcin” value is given as “reduction”. For the same molecule, the “other vascular and non-vascular lineage markers (SMC, pericyte, fibroblast, cardiac, neuronal, hepatic, pulmonary, renal, hematopoietic, adipogenic)” value in experiment [2] (real-time PCR) is “No changes were found”. The “mesenchymal and stem cell markers” value in experiment [2] (treated cells) is “no induction”. For the same molecule, the “expression of genes related to glucose metabolism (casein kinase 2, glucose transporter 4, insulin receptor substrates 1 and 2)” value in experiment [2] (treated osteoblasts) is listed as “No changes were detected”. Besides, the results for the “osteocytes in implants, histology and immunostaining” value in experiment [3] (SB216763-treated cells with SMAD1 overexpression or knockdown of β-catenin) and in experiment [3] (implants with eGFP positive cells from treated osteoblasts) were “presence of osteocytes” and “lack of osteocytes”, respectively. The “ectopic bone by microCT” value in experiment [3] (implants with eGFP positive cells from treated osteoblasts vs osteoblast controls) was “smaller size of ectopic bone, less trabecular formation and less bone volume”. In addition, in experiment [4], the “treated osteoblasts expressing the endothelial markers CD31 and VE-cadherin” value is recorded as “more than 85%”. Also, the “genes with decreased DNA-binding of SMAD1 in the regulatory regions” value in experiment [5] (ChIP-seq) is given as 8214 genes. The “genes with increased β-catenin DNA-binding in the regulatory regions” value in experiment [5] (ChIP-seq) was determined as 1543 genes. Besides, the “genes with an increase in expression and β-catenin DNA-binding” value in experiment [5] (overlap with 519 induced genes) came out at 84 genes. In addition, in experiment [5] (overlap with 827 suppressed genes), the “genes with a decrease in both gene expression and SMAD1 DNA-binding” value was 649 genes.
